Laboratory results: patent publication US10000507B2, “Furo- and thieno-pyridine carboxamide compounds useful as pim kinase inhibitors” (Incyte Corporation, priority 2013, dated 2018)

How the values were obtained:
Format in all cases: biochemical
[1] = molecular target: Pim-3 (Homo sapiens (Human), UniProt Q86V86); experiment: Pim-3 kinase assay; conditions: 1 mM ATP, biotin-labeled BAD peptide substrate; read-out: Pim3 IC50
Experimental: (§1) Pim-1 and Pim-3 kinase assays-20 μL reactions were run in white 384 well polystyrene plates dotted with 0.8 μL compound/DMSO in the assay buffer (50 mM Tris, pH 7.5, 0.01% Tween-20, 5 mM MgCl2, 0.01% BSA, 5 mM DTT), containing […] Biotin-labeled BAD peptide substrate (AnaSpec 62269), 1 mM ATP, and 2.5 pM (Pim-1, Invitrogen PV3503) or 1.25 pM (Pim-3, Millipore 14-738) enzyme for 1 h at 25° C. Reactions were stopped by addition of 10 μL STOP Buffer (150 mM Tris, pH=7.5, 150 mM NaCl, 75 mM EDTA, 0.01% Tween-20, 0.3% BSA) supplemented with Phospho-Bad (Ser112) Antibody (Cell Signaling 9291) diluted 666-fold, and Streptavidin donor beads (PerkinElmer 6760002) along with Protein-A acceptor beads (PerkinElmer 6760137) at 15 μg/mL each. Supplementation of the STOP buffer with beads and stopping the reactions were done under reduced light. Prior to the stopping reactions STOP buffer with beads was pre-incubated for 1 h in the dark at room temperature. After stopping the reactions, plates were incubated for 1 h in the dark at room temperature before reading on a PHERAstar FS plate reader (BMG Labtech) under reduced light.

[2] = molecular target: Pim-1 (Homo sapiens (Human), UniProt P11309); experiment: Pim-1 kinase assay; conditions: 1 mM ATP, biotin-labeled BAD peptide substrate; read-out: Pim1 IC50
Chain of Pim-1 (P11309 whole entry): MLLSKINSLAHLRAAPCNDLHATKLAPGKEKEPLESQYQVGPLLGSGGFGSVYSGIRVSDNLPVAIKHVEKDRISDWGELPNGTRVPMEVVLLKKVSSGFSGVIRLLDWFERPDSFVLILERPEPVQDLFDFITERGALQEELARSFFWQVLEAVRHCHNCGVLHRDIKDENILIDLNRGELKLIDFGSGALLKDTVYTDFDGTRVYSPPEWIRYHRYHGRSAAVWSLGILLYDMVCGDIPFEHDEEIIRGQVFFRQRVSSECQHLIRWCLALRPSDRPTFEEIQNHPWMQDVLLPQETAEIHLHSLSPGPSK
Experimental: as §1

[3] = molecular target: Pim-2 (Homo sapiens (Human), UniProt Q9P1W9); experiment: Pim-2 kinase assay; conditions: 1 mM ATP, fluorescein-labeled CREBtide peptide substrate; read-out: Pim2 IC50
Chain of Pim-2 (Q9P1W9 whole entry): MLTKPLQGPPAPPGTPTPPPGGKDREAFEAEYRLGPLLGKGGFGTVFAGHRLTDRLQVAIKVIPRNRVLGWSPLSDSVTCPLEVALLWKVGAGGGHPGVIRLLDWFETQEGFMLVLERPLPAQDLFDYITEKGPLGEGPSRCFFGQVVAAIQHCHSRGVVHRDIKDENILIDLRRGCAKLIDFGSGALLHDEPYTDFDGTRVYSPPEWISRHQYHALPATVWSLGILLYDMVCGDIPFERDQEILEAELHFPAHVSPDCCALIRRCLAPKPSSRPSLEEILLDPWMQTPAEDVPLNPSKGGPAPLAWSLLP
Experimental: Pim-2 kinase assay-20 μL reactions were run in white 384 well polystyrene plates dotted with 0.8 μL compound/DMSO in the assay buffer (50 mM Tris, pH 7.5, 0.01% Tween-20, 5 mM MgCl2, 0.01% BSA, 5 mM DTT), containing 0.05 μm Fluorescein-labeled CREBtide peptide substrate (Invitrogen PV3508), 1 mM ATP, and 1 nM enzyme (Invitrogen PV3649) for 2 h at 25° C. Reactions were stopped by addition of 10 μL TR-FRET Dilution Buffer (Invitrogen PV3574) with 30 mM EDTA and 1.5 nM LanthaScreen Tb-CREB pSer133 antibody (Invitrogen PV3566). After 30 min. incubation at room temperature, plates were read on a PHERAstar FS plate reader (BMG Labtech).

SMILES | IC50 [1] [nM] | IC50 [2] [nM] | IC50 [3] [nM]
Cn1ncc(NC(=O)c2c(N)sc3cc(-c4c(F)cccc4F)cnc23)c1N1CCCC(N)CC1 (stereo not drawn) [Example 27, 2-Amino-N-[5-(4-aminoazepan-1-yl)-1-methyl-1H-pyrazol-4-yl]-6-(2,6-difluorophenyl)-thieno[3,2-b]pyridine-3-carboxamide] | ≤ 10 | ≤ 10 | 10 to 100
Cc1noc(C)c1-c1cnc2c(C(=O)Nc3cnccc3N3CCC[C@H](N)C3)c(N)sc2c1 [Example 28, 2-Amino-N-{4-[(3S)-3-aminopiperidin-1-yl]pyridin-3-yl}-6-(3,5-dimethylisoxazol-4-yl)-thieno[3,2-b]pyridine-3-carboxamide] | > 40 | ≤ 10 | > 2000
Cc1noc(C)c1-c1cnc2c(C(=O)Nc3cnn(C)c3N3CCCC(N)CC3)c(N)sc2c1 (stereo not drawn) [Example 29, 2-Amino-N-[5-(4-aminoazepan-1-yl)-1-methyl-1H-pyrazol-4-yl]-6-(3,5-dimethylisoxazol-4-yl)-thieno[3,2-b]pyridine-3-carboxamide] | ≤ 10 | ≤ 10 | 100 to 1000
Cn1ncc(NC(=O)c2c(N)sc3cc(-c4nccs4)cnc23)c1N1CCCC(N)CC1 (stereo not drawn) [Example 30, 2-Amino-N-[5-(4-aminoazepan-1-yl)-1-methyl-1H-pyrazol-4-yl]-6-(1,3-thiazol-2-yl)-thieno[3,2-b]pyridine-3-carboxamide] | ≤ 10 | ≤ 10 | 10 to 100
CN1CC(c2cnc3c(C(=O)Nc4cnccc4N4CCC[C@H](N)C4)c(N)sc3c2)C1 [Example 31, 2-Amino-N-{4-[(3S)-3-aminopiperidin-1-yl]pyridin-3-yl}-6-(1-methylazetidin-3-yl)thieno[3,2-b]pyridine-3-carboxamide] | ≤ 10 | ≤ 10 | 100 to 1000
CN1CC(c2cnc3c(C(=O)Nc4cnn(C)c4N4CCCC(N)CC4)c(N)sc3c2)C1 (stereo not drawn) [Example 32, 2-Amino-N-[5-(4-aminoazepan-1-yl)-1-methyl-1H-pyrazol-4-yl]-6-(1-methylazetidin-3-yl)thieno[3,2-b]pyridine-3-carboxamide] | ≤ 10 | ≤ 10 | 100 to 1000
CC(C)N1CC(c2cnc3c(C(=O)Nc4cnccc4N4CCC[C@H](N)C4)c(N)sc3c2)C1 [Example 33, 2-Amino-N-{4-[(3S)-3-aminopiperidin-1-yl]pyridin-3-yl}-6-(1-isopropylazetidin-3-yl)thieno[3,2-b]pyridine-3-carboxamide] | 10 to 100 | ≤ 10 | > 2000
COCc1cnc2c(C(=O)Nc3cnccc3N3CCC[C@H](N)C3)c(N)sc2c1 [Example 34, 2-Amino-N-{4-[(3S)-3-aminopiperidin-1-yl]pyridin-3-yl}-6-(methoxymethyl)thieno[3,2-b]pyridine-3-carboxamide] | ≤ 10 | ≤ 10 | 100 to 1000
Nc1sc2cc(C3CCOCC3)cnc2c1C(=O)Nc1cnccc1N1CCC[C@H](N)C1 [Example 35, 2-Amino-N-{4-[(3S)-3-aminopiperidin-1-yl]pyridin-3-yl}-6-(tetrahydro-2H-pyran-4-yl)thieno[3,2-b]pyridine-3-carboxamide] | ≤ 10 | ≤ 10 | 10 to 100
Nc1sc2cc(F)cnc2c1C(=O)Nc1cnccc1N1CCC[C@H](N)C1 [Example 36, 2-Amino-N-{4-[(3S)-3-aminopiperidin-1-yl]pyridin-3-yl}-6-fluoro-thieno[3,2-b]pyridine-3-carboxamide] | ≤ 10 | ≤ 10 | 100 to 1000
Cn1ncc(NC(=O)c2c(N)sc3cc(F)cnc23)c1N1CCCC(N)CC1 (stereo not drawn) [Example 37, 2-Amino-N-[5-(4-aminoazepan-1-yl)-1-methyl-1H-pyrazol-4-yl]-6-fluoro-thieno[3,2-b]pyridine-3-carboxamide] | ≤ 10 | ≤ 10 | 100 to 1000
Nc1sc2c(C(F)(F)F)ccnc2c1C(=O)Nc1cnccc1N1CCC[C@H](N)C1 [Example 38, 2-Amino-N-{4-[(3S)-3-aminopiperidin-1-yl]pyridin-3-yl}-7-trifluoromethyl-thieno[3,2-b]pyridine-3-carboxamide] | ≤ 10 | ≤ 10 | 100 to 1000
Cn1ncc(NC(=O)c2c(N)sc3ccc(Cl)nc23)c1N1CCCC(N)CC1 (stereo not drawn) [Example 39, 2-Amino-N-[5-(4-aminoazepan-1-yl)-1-methyl-1H-pyrazol-4-yl]-5-chlorothieno[3,2-b]pyridine-3-carboxamide] | ≤ 10 | ≤ 10 | 100 to 1000
Cn1ncc(NC(=O)c2c(N)sc3ccc(Cl)nc23)c1N1CCC[C@H](N)C1 [Example 41, 2-Amino-N-{5-[(3S)-3-aminopiperidin-1-yl]-1-methyl-1H-pyrazol-4-yl}-5-chlorothieno[3,2-b]pyridine-3-carboxamide] | ≤ 10 | ≤ 10 | 100 to 1000
Cc1ccc2sc(N)c(C(=O)Nc3cnn(C)c3N3CCCC(N)CC3)c2n1 (stereo not drawn) [Example 43, 2-Amino-N-[5-(4-aminoazepan-1-yl)-1-methyl-1H-pyrazol-4-yl]-5-methylthieno[3,2-b]pyridine-3-carboxamide] | 10 to 100 | ≤ 10 | > 1000
Cn1ncc(NC(=O)c2c(N)sc3ccc(-c4ccccc4)nc23)c1N1CCCC(N)CC1 (stereo not drawn) [Example 44, 2-Amino-N-[5-(4-aminoazepan-1-yl)-1-methyl-1H-pyrazol-4-yl]-5-phenylthieno[3,2-b]pyridine-3-carboxamide] | ≤ 10 | ≤ 10 | > 2000
Nc1oc2cccnc2c1C(=O)Nc1cnccc1N1CCC[C@H](N)C1 [Example 45, 2-Amino-N-{4-[(3S)-3-aminopiperidin-1-yl]pyridin-3-yl}furo[3,2-b]pyridine-3-carboxamide] | ≤ 10 | ≤ 10 | 100 to 1000
Cn1ncc(NC(=O)c2c(N)oc3cccnc23)c1N1CCCC(N)CC1 (stereo not drawn) [Example 46, 2-Amino-N-[5-(4-aminoazepan-1-yl)-1-methyl-1H-pyrazol-4-yl]furo[3,2-b]pyridine-3-carboxamide] | 10 to 100 | ≤ 10 | > 2000
CCc1cnc2c(C(=O)Nc3cnccc3N3CCC[C@H](N)C3)c(N)oc2c1 [Example 47, 2-Amino-N-{4-[(3S)-3-aminopiperidin-1-yl]pyridin-3-yl}-6-ethylfuro[3,2-b]pyridine-3-carboxamide] | ≤ 10 | ≤ 10 | 10 to 100
Nc1oc2cc(C(F)(F)F)cnc2c1C(=O)Nc1cnccc1N1CCC[C@H](N)C1 [Example 48, 2-amino-N-{4-[(3S)-3-aminopiperidin-1-yl]pyridin-3-yl}-6-(trifluoromethyl)furo[3,2-b]pyridine-3-carboxamide] | ≤ 10 | ≤ 10 | 10 to 100
Cc1cnc2c(C(=O)Nc3cnccc3N3CCC[C@H](N)C3)c(N)oc2c1 [Example 49, 2-amino-N-{4-[(3S)-3-aminopiperidin-1-yl]pyridin-3-yl}-6-methyl-furo[3,2-b]pyridine-3-carboxamide] | ≤ 10 | ≤ 10 | 10 to 100
CC(C)c1cnc2c(C(=O)Nc3cnccc3N3CCC[C@H](N)C3)c(N)oc2c1 [Example 50, 2-amino-N-{4-[(3S)-3-aminopiperidin-1-yl]pyridin-3-yl}-6-(iso-propyl)furo[3,2-b]pyridine-3-carboxamide] | ≤ 10 | ≤ 10 | 10 to 100
